In BindingDB's records for doi:10.1021/ml500238q (University of Bonn, 2014):

Each compound was assayed against Cathepsin K (Homo sapiens) (UniProt P43235) (assay: Inhibition of human cathepsin K using Z-Leu-Arg-AMC fluorogenic substrate incubated for 60 mins).

`CN(Cc1ccccc1)C(=O)CN(C#N)NC(=O)OC(C)(C)C` was tested. Which Ki did it give?
The Ki was 4.2 pM.

How did the Ki turn out when `CC(C)(C)OC(=O)NN(C#N)CC(=O)N1CCOCC1` was run?
The Ki was 11 pM.

For `CN(C(=O)OC(C)(C)C)N(C#N)CC(=O)N1CCOCC1`, which Ki is on record?
Its Ki is 31000 pM.

Which Ki does the source give for `CC(C)(C)OC(=O)NN(C#N)CC(=O)N(Cc1ccccc1)Cc1ccccc1` here?
The Ki was 1.43 pM.
